Measured values: patent US5098995A, “GRF Analogs VIIA” (The Salk Institute For Biological Studies, priority 1989, dated 1992)
Ends that are not written are not given here.

Test system: cells of rat pituitary glands
Experiment: in vitro assay of growth hormone release from cultured rat pituitary cells, side-by-side with the hpGRF(1-40)-OH standard
Assay type: cell-based
Conditions: potency for GH release relative to hGRF(1-40)-OH standard = 1.0; equimolar concentrations; rat pituitary cell cultures; incubation 3 to 4 hours; ir GH by radioimmunoassay; limits in brackets
Description: To determine the relative effectiveness of certain representative synthetic peptides to promote the release of growth hormone, in vitro assays are carried out using synthetic hpGRF(1-40)-OH as a standard in side-by-side comparison with equimolar concentrations of the representative analogs which have been synthesized. Cultures are used which include cells of rat pituitary glands removed some three to five days previously. Such cultures are considered optimal for the secretion of growth hormone and are used for the comparative testing, in the general manner described in Vale et al. Endocrinology, 91, 562-572 (1972) and as more particularly described in Vale et al. Endocrinology, 112, 1553-1555 (1983). Incubation with the substance to be tested is carried out for 3 to 4 hours, and aliquots of the culture medium are removed and processed to measure their contents in immunoreactive GH(ir GH) by a well-characterized radioimmunoassay.

Row | Substance | In Vitro Potencies
1 | [N^a MeTyr^1, Ala^15, CMA^19, Nle^27, Asn^28 ]-hGRF(1-29)-NH2 | 7.07 (3.8-13.6)
2 | [N^a MeTyr^1, Ala^15, CML^17, Nle^27, Asn^28 ]-hGRF(1-29)-NH2 | 5.41 (3.5-8.3)
3 | [N^a MeTyr^1, Ala^15, CML^22, Nle^27, Asn^28 ]-hGRF(1-29)-NH2 | 7.18 (4.1-12.7)
4 | [N^a MeTyr^1, Ala^15, CML^23, Nle^27, Asn^28 ]-hGRF(1-29)-NH2 | 1.96 (1.1-3.3)
5 | [N^a MeTyr^1, Ala^15, CML^26, Nle^27, Asn^28 ]-hGRF(1-29)-NH2 | 6.44 (4.0-10.3)
6 | [N^a MeTyr^1, CMA^13, Ala^15, Nle^27, Asn^28 ]-hGRF(I-29)-NH2 | 2.24 (1.4-3.4)
7 | [N^a MeTyr^1, CML^5, Ala^15, Nle^27, Asn^28 ]-hGRF(1-29)-NH2 | 3.59 (2.3-5.5)
8 | hGRF(1-40)--OH: synthetic human pancreatic/hypothalamic GH releasing factor (1-40) free acid, used as the standard in the in vitro and in vivo tests (YADAIFTNSYRKVLGQLSARKLLQDIMSRQQGESNQERGA-OH; UniProt P01286 32-71, looked up, fragment) [reference compound] | 1.0
